Results as given in patent US7205162B1, “Artificial antibodies, method of producing the same and use thereof” (priority 1995, dated 2007).

Legend:
[1] = system: natural antibodies (Ab's) against theophylline; conditions: data from ref 22; cited from earlier work
[2] = Molecularly Imprinted Sorbent Assay (MIA), competitive binding of 3H-theophylline to anti-theophylline polymer; conditions: for Cross-reaction (%) ArtAb, Theophylline antibodies: molar ratio of theophylline to ligand giving 50% inhibition of 3H-theophylline binding to polymer, ligands added to drug free serum
[3] = Molecularly Imprinted Sorbent Assay (MIA), competitive binding of 3H-diazepam to anti-diazepam polymer; conditions: molar ratio of diazepam to ligand giving 50% inhibition of 3H-diazepam binding to polymer; ligands added to drug free serum
[4] = system: natural antibodies (Ab's) against diazepam; conditions: data from ref 24; cited from earlier work
[5] = Scatchard plot analysis with radio-labelled ligand, anti-diazepam polymer
Excerpt: (§1) The equilibrium dissociation constants (KD) for binding of the drugs to the corresponding polymers were estimated by Scatchard plot analysis using radio-labelled ligands.

[6] = Scatchard plot analysis with radio-labelled ligand, anti-theophylline polymer; format: binding; conditions: LIGAND programme
Excerpt: as §1

In the case of `Cn1c(=O)c2[nH]c(=O)[nH]c2n(C)c1=O` [1,3-Dimethyluric acid], the “Cross-reaction (%) Ab*, Theophylline antibodies” value [1] is given as under 1% and the “Cross-reaction (%) ArtAb, Theophylline antibodies” value [2] is given as under 1%.
In the case of `Cn1c(=O)[nH]c2[nH]c(=O)[nH]c2c1=O` [1-Methyluric acid], the “Cross-reaction (%) Ab*, Theophylline antibodies” value [1] is listed as under 1% and the “Cross-reaction (%) ArtAb, Theophylline antibodies” value [2] is listed as under 1%.
For `Cn1c(=O)[nH]c(=O)c2[nH]cnc21` [3-Methylxantin, 3-methylxanthine], the “Cross-reaction (%) Ab*, Theophylline antibodies” value [1] is listed as 2%, the “cross-reactivity in MIA for theophylline (in words)” value [2] is listed as “some cross-reactivity” and the “Cross-reaction (%) ArtAb, Theophylline antibodies” value [2] is listed as 7%.
In the case of `Cn1c(=O)c2c(ncn2CCO)n(C)c1=O` [7-(β-Hydroxyethyl)-1,3-di-methylxanthine], the “Cross-reaction (%) Ab*, Theophylline antibodies” value [1] is given as under 1% and the “Cross-reaction (%) ArtAb, Theophylline antibodies” value [2] is given as under 1%.
In the case of `Cc1nnc2n1-c1ccc(Cl)cc1C(c1ccccc1)=NC2` [Alprazolam], the “Cross-reaction (%) ArtAb, Diazepam antibodies” value [3] is given as 40% and the “Cross-reaction (%) Ab**, Diazepam antibodies” value (“Cross-reaction (%) Ab**” below) [4] is given as 44%.
In the case of `CNC1=Nc2ccc(Cl)cc2C(c2ccccc2)=[N+]([O-])C1` [Chlordiazepoxid], the “Cross-reaction (%) ArtAb, Diazepam antibodies” value [3] is listed as 2% and the “Cross-reaction (%) Ab**” value [4] is listed as under 1%.
In the case of `O=C1CN=C(c2ccccc2Cl)c2cc([N+](=O)[O-])ccc2N1` [Clonazepam], the “Cross-reaction (%) ArtAb, Diazepam antibodies” value [3] is listed as 9% and the “Cross-reaction (%) Ab**” value [4] is listed as 5%.
In the case of `O=C1CN=C(c2ccccc2)c2cc(Cl)ccc2N1` [Demethyldiazepam, Desmethyldiazepam], the “Cross-reaction (%) ArtAb, Diazepam antibodies” value [3] is given as 27% and the “Cross-reaction (%) Ab**” value [4] is given as 32%.
With `CN1C(=O)CN=C(c2ccccc2)c2cc(Cl)ccc21` [Diazepam] the “Cross-reaction (%) ArtAb, Diazepam antibodies” value [3] was 100%, the Kd ([5]; read-out: KD, high affinity binding sites, LIGAND programme) was 0.0376 µM and the Kd ([5]; read-out: KD, low affinity binding sites, LIGAND programme) was 0.0736 µM. For the same compound, the “Cross-reaction (%) Ab**” value [4] was 100%.
For `O=c1[nH]cnc2nc[nH]c12` [Hypoxanthine], the “Cross-reaction (%) Ab*, Theophylline antibodies” value [1] is listed as under 1% and the “Cross-reaction (%) ArtAb, Theophylline antibodies” value [2] is listed as under 1%.
For `O=C1Nc2ccc(Cl)cc2C(c2ccccc2Cl)=NC1O` (stereo not shown) [Lorazepam], the “Cross-reaction (%) ArtAb, Diazepam antibodies” value [3] is listed as 4% and the “Cross-reaction (%) Ab**” value [4] is listed as 1%.
In the case of `Cn1cnc2c1c(=O)[nH]c(=O)n2C` [Theobromine, 3,7-dimetylxanthine], the “Cross-reaction (%) Ab*, Theophylline antibodies” value [1] is given as under 1%.
In the case of `Cn1c(=O)c2[nH]cnc2n(C)c1=O` [Theophylline, 1,3-dimethylxanthine], the “Cross-reaction (%) Ab*, Theophylline antibodies” value [1] is given as 100%, the Kd ([6]; read-out: KD, high affinity binding sites) is given as 0.346 µM and the Kd ([6]; read-out: KD, low affinity binding sites) is given as 65.5 µM. The “Cross-reaction (%) ArtAb, Theophylline antibodies” value [2] was 100%.
In the case of `O=c1[nH]c(=O)c2[nH]c(=O)[nH]c2[nH]1` [Uric acid], the “Cross-reaction (%) Ab*, Theophylline antibodies” value [1] is listed as under 1% and the “Cross-reaction (%) ArtAb, Theophylline antibodies” value [2] is listed as under 1%.
In the case of `O=c1[nH]c(=O)c2[nH]cnc2[nH]1` [Xanthine], the “Cross-reaction (%) Ab*, Theophylline antibodies” value [1] is given as under 1% and the “Cross-reaction (%) ArtAb, Theophylline antibodies” value [2] is given as under 1%.
In the case of `Cn1c(=O)c2[nH]cnc2n(C)c1=O` [[^3H]-theophylline], the “time to binding equilibrium” value ([2]; 12.5 mg polymer, acetonitrile-acetic acid (99/1), room temperature) is reported as 8 h, the “share of the binding occurred within 3 h” value ([2]; within 3 h, acetonitrile-acetic acid (99/1), room temperature) is reported as 80% and the “share of the binding occurred within 5 h” value ([2]; within 5 h, acetonitrile-acetic acid (99/1), room temperature) is reported as 90%.
